Data reported in patent US11214803B2, “Modulators of YAP1 expression” (Ionis Pharmaceuticals, Inc., priority 2019, dated 2022).
Strand notation (5' to 3'): a small letter for the sugar, then the base; units joined by * are phosphorothioate-linked, units joined directly phosphodiester-linked; [ ] holds rarer units or linkages, { } end groups; capitals alone tell only the bases. e = 2'-O-(2-methoxyethyl) (MOE); k = constrained ethyl (cEt); [5mC] = 5-methylcytosine; d = 2'-deoxy (DNA); m = 2'-O-methyl

What follows are substances tested on Yap1 mRNA (assay: Antisense inhibition of human Yap1 in SNU-449 cells by modified oligonucleotides, single dose (Example 5, RTS36584)). Conditions: Table 39; SNU-449 cells, 10,000 cells per well, free uptake, 2,000 nM oligonucleotide, approx. 48 hours; RTS36584; normalized to RIBOGREEN; Yap1 mRNA relative to untreated control.
Format: cell-based
Outline: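 Plate SNU-449 cells at 10,000 per well; add 2,000 nM modified oligonucleotide without transfection reagent; after ~48 h isolate RNA, run qRT-PCR with RTS36584, normalise to RIBOGREEN and report % UTC.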
With “1198403 (kT*dT*dG*dG*dA*dA*dG*dA*dT*d[5mC]*dT*kG*eA*kA*eA*k[5mC]) [Compound 1198403]” the “YAP1 (% UTC)” value was 54 % UTC. With “1198435 (kA*dT*dG*dT*dA*dA*dT*dA*dT*dT*dG*k[5mC]*eA*kA*eT*k[5mC]; antisense) [Compound 1198435]” the “YAP1 (% UTC)” value was 57 % UTC. With “1198380 (kA*dG*dA*dG*dT*dA*dT*dG*dT*dG*dG*k[5mC]*eA*kA*eT*kA; antisense) [Compound 1198380]” the “YAP1 (% UTC)” value was 18 % UTC.

Same assay, conditions: Table 40 (separate experiment); SNU-449 cells, 10,000 cells per well, free uptake, 2,000 nM oligonucleotide, approx. 48 hours; RTS36584; normalized to RIBOGREEN; Yap1 mRNA relative to untreated control
For “1198755 (kT*eG*k[5mC]*dT*dT*dT*dG*dG*dA*dA*dG*dA*eT*e[5mC]*kT*kG) [Compound 1198755]”, the “YAP1 (% UTC)” value was 32 % UTC.

Same assay, conditions: Table 41; SNU-449 cells, 10,000 cells per well, free uptake, 2,000 nM modified oligonucleotide, approximately 48 hours; RTS36584; normalized to RIBOGREEN; Yap1 mRNA relative to untreated control cells
For “1198787 (antisense kA*eG*kT*dG*dT*dA*dT*dG*dT*d[5mC]*dA*dG*eA*eA*kG*kA) [Compound 1198787]”, the “YAP1 (% UTC)” value was 9 % UTC. In the case of “1198736 (kT*eG*kA*dG*dG*dT*dA*dT*dA*dA*d[5mC]*dT*eG*eG*kG*k[5mC]; antisense) [Compound 1198736]”, the “YAP1 (% UTC)” value is reported as 20 % UTC. “1198668 (antisense kA*kT*dA*dG*dT*dG*d[5mC]*dT*dT*dT*dG*dG*kA*eA*kG*eA) [Compound 1198668]” was tested, and the “YAP1 (% UTC)” value was 72 % UTC. With “1198656 (kG*k[5mC]*dA*d[5mC]*dT*dT*dT*dT*dA*d[5mC]*dA*dT*kT*eA*kG*eG; antisense) [Compound 1198656]” the “YAP1 (% UTC)” value was 11 % UTC.

Same assay, conditions: Table 42 (separate experiment); SNU-449 cells, 10,000 cells per well, free uptake, 2,000 nM modified oligonucleotide, approximately 48 hours; RTS36584; normalized to RIBOGREEN; Yap1 mRNA relative to untreated control cells
With “1198199 (kA*kT*dT*dG*dT*d[5mC]*dT*d[5mC]*dA*dT*dG*e[5mC]*e[5mC]*eT*kT*kA; antisense) [Compound 1198199]” the “YAP1 (% UTC)” value was 38 % UTC. For “1198224 (kA*k[5mC]*dT*dT*dT*dT*dA*d[5mC]*dA*dT*dT*eA*eG*eG*kA*kA) [Compound 1198224]”, the “YAP1 (% UTC)” value was 74 % UTC. For “1095483 (antisense k[5mC]*kA*d[5mC]*dT*dG*dA*dG*dG*dT*dA*dT*dA*kA*e[5mC]*kT*eG) [Compound 1095483]”, the “YAP1 (% UTC)” value was 101 % UTC. With “1095463 (antisense kA*k[5mC]*dT*dG*dA*dG*dG*dT*dA*dT*dA*dA*k[5mC]*eT*kG*eG) [Compound 1095463]” the “YAP1 (% UTC)” value was 37 % UTC.

Same assay, conditions: Table 43 experiment; SNU-449 cells, 10,000 cells per well, free uptake, 2,000 nM, approximately 48 hours; RTS36584; Yap1 mRNA normalized to RIBOGREEN, relative to untreated control cells
In the case of “1198277 (kA*kA*dG*dT*dA*dA*dG*dG*dT*dT*dT*e[5mC]*e[5mC]*e[5mC]*kA*kG; antisense) [Compound 1198277]”, the “YAP1 (% UTC)” value is reported as 32 % UTC. For “1198253 (kA*d[5mC]*dT*d[5mC]*dT*dT*dA*dT*dA*dT*dG*eG*eT*eT*kT*kT; antisense) [Compound 1198253]”, the “YAP1 (% UTC)” value was 50 % UTC. For “1198280 (kA*k[5mC]*dT*dA*dA*dG*dT*dA*dA*dG*dG*eT*eT*eT*k[5mC]*k[5mC]; antisense) [Compound 1198280]”, the “YAP1 (% UTC)” value was 40 % UTC. With “1198255 (k[5mC]*kA*dA*d[5mC]*dT*d[5mC]*dT*dT*dA*dT*dA*eT*eG*eG*kT*kT; antisense) [Compound 1198255]” the “YAP1 (% UTC)” value was 84 % UTC. In the case of “1198462 (antisense kT*kG*dG*dA*dA*dA*dT*dT*dG*dT*d[5mC]*eT*k[5mC]*eA*kT*eG) [Compound 1198462]”, the “YAP1 (% UTC)” value is reported as 27 % UTC.

Same assay, conditions: Table 44 experiment; SNU-449 cells, 10,000 cells per well, free uptake, 2,000 nM, approximately 48 hours; RTS36584; Yap1 mRNA normalized to RIBOGREEN, relative to untreated control cells
For “1198508 (k[5mC]*kT*dT*dA*dT*dA*dT*dG*dG*dT*dT*eT*kT*eG*kT*eG; antisense) [Compound 1198508]”, the “YAP1 (% UTC)” value was 22 % UTC.

Same assay, conditions: Table 45; Yap1 mRNA as percent of untreated control, SNU-449 cells, single dose
“1198959 (kA*kG*dT*dG*dT*dA*dT*dG*dT*d[5mC]*dA*kG*dA*kA*dG*kA; antisense) [Compound 1198959]” was tested, and the “YAP1 (% UTC)” value was 8 % UTC. “1198973 (kG*kA*d[5mC]*dT*dA*dA*dG*dT*dA*dA*dG*kG*dT*kT*dT*k[5mC]; antisense) [Compound 1198973]” was tested, and the “YAP1 (% UTC)” value was 53 % UTC. With “1198897 (kA*kT*dG*dG*dA*dA*dA*dT*dT*dG*dT*k[5mC]*dT*k[5mC]*dA*kT; antisense) [Compound 1198897]” the “YAP1 (% UTC)” value was 61 % UTC.

Same assay, conditions: Table 46; Yap1 mRNA as percent of untreated control, SNU-449 cells, single dose
With “1198849 (kG*kA*dT*dT*dT*dA*dG*dG*dA*dT*dG*k[5mC]*eA*kT*eG*kG; antisense) [Compound 1198849]” the “YAP1 (% UT)” value was 42 % UT. In the case of “1198818 (antisense kT*kA*dT*dT*dA*dG*dA*dG*dT*dA*dT*kG*eT*kG*eG*k[5mC]) [Compound 1198818]”, the “YAP1 (% UT)” value is reported as 15 % UT. “1198831 (k[5mC]*kA*d[5mC]*dT*dT*dT*dT*dA*d[5mC]*dA*dT*kT*eA*kG*eG*kA; antisense) [Compound 1198831]” was tested, and the “YAP1 (% UT)” value was 12 % UT.

Same assay, conditions: Table 48; Yap1 mRNA level relative to untreated control; modified oligonucleotides targeting SEQ ID NO.: 1 and 2
For “1198321 (kT*kG*k[5mC]*dT*dT*dT*dG*dG*dA*dA*dG*dA*kT*e[5mC]*kT*eG; antisense) [Compound 1198321]”, the “YAP1 (% UT)” value was 45 % UT. For “1197199 (antisense kA*kT*kA*dT*dG*dG*dT*dT*dT*dT*dG*dT*dG*kT*kG*kT) [Compound 1197199]”, the “YAP1 (% UT)” value was 75 % UT. For “1198287 (kA*kA*kA*dT*dT*dG*dT*d[5mC]*dT*d[5mC]*dA*dT*kG*e[5mC]*k[5mC]*eT; antisense) [Compound 1198287]”, the “YAP1 (% UT)” value was 13 % UT. In the case of “1009397 (kA*kA*k[5mC]*dA*d[5mC]*dT*dG*dA*dG*dG*dT*dA*dT*kA*kA*k[5mC]; antisense) [Compound 1009397]”, the “YAP1 (% UT)” value is reported as 44 % UT. “1197216 (antisense kA*kA*kA*dG*dT*dG*dT*dA*dT*dG*dT*d[5mC]*dA*kG*kA*kA) [Compound 1197216]” was tested, and the “YAP1 (% UT)” value was 12 % UT. In the case of “1198322 (kG*kT*kG*d[5mC]*dT*dT*dT*dG*dG*dA*dA*dG*kA*eT*k[5mC]*eT; antisense) [Compound 1198322]”, the “YAP1 (% UT)” value is reported as 48 % UT.

Same assay, conditions: Table 49; Yap1 mRNA level relative to untreated control; modified oligonucleotides targeting SEQ ID NO.: 1 and 2
With “1198574 (antisense kG*kG*kA*dA*dG*dA*dT*d[5mC]*dT*dG*dA*dA*kA*k[5mC]*kT*e[5mC]) [Compound 1198574]” the “YAP1 (% UT)” value was 37 % UT. For “1198305 (kG*kA*kG*dG*dT*dA*dT*dA*dA*d[5mC]*dT*dG*kG*eG*k[5mC]*eA; antisense) [Compound 1198305]”, the “YAP1 (% UT)” value was 78 % UT. With “1095547 (antisense kA*k[5mC]*kT*dG*dA*dG*dG*dT*dA*dT*dA*dA*k[5mC]*eT*kG*eG) [Compound 1095547]” the “YAP1 (% UT)” value was 42 % UT. For “1198554 (antisense kT*kT*kA*dG*dA*dG*dT*dA*dT*dG*dT*dG*kG*k[5mC]*kA*eA) [Compound 1198554]”, the “YAP1 (% UT)” value was 16 % UT. In the case of “1198337 (kT*k[5mC]*kT*dT*dA*dT*dA*dT*dG*dG*dT*dT*kT*eT*kG*eT; antisense) [Compound 1198337]”, the “YAP1 (% UT)” value is reported as 26 % UT.

Same assay, conditions: Table 50; Yap1 mRNA remaining as percent of untreated control (UT), SNU-449 cells, single dose
In the case of “1197293 (k[5mC]*kA*k[5mC]*dT*mU*dT*dT*dA*d[5mC]*dA*dT*dT*dA*kG*kG*kA; antisense) [Compound 1197293]”, the “YAP1 (% UT)” value is reported as 94 % UT. With “1198591 (antisense kA*kT*kT*d[5mC]*dA*dG*dA*dT*dT*dT*dA*dG*kG*kA*kT*eG) [Compound 1198591]” the “YAP1 (% UT)” value was 106 % UT. In the case of “1198621 (kA*kA*kG*dT*dA*dA*dG*dG*dT*dT*dT*d[5mC]*k[5mC]*k[5mC]*kA*eG; antisense) [Compound 1198621]”, the “YAP1 (% UT)” value is reported as 80 % UT. “1198563 (antisense kG*kA*kG*dG*dT*dA*dT*dA*dA*d[5mC]*dT*dG*kG*kG*k[5mC]*eA) [Compound 1198563]” was tested, and the “YAP1 (% UT)” value was 53 % UT. “1198561 (antisense kG*kG*kT*dA*dT*dA*dA*d[5mC]*dT*dG*dG*dG*k[5mC]*kA*kA*eA) [Compound 1198561]” was tested, and the “YAP1 (% UT)” value was 29 % UT. With “1198592 (antisense kA*kT*kA*dT*dG*dG*dT*dT*dT*dT*dG*dT*kG*kT*kG*eT) [Compound 1198592]” the “YAP1 (% UT)” value was 50 % UT.

Same assay, conditions: Table 51; Yap1 mRNA remaining as percent of untreated control (UT), SNU-449 cells, single dose
“1197253 (antisense kA*kG*kT*dG*mC*dT*dT*dT*dG*dG*dA*dA*dG*kA*kT*k[5mC]) [Compound 1197253]” was tested, and the “YAP1 (% UT)” value was 58 % UT. “1197263 (kG*kA*k[5mC]*dA*mA*d[5mC]*dT*d[5mC]*dT*dT*dA*dT*dA*kT*kG*kG) [Compound 1197263]” was tested, and the “YAP1 (% UT)” value was 91 % UT. In the case of “1197289 (kG*kG*kT*dA*mU*dA*dA*d[5mC]*dT*dG*dG*dG*d[5mC]*kA*kA*kA) [Compound 1197289]”, the “YAP1 (% UT)” value is reported as 48 % UT.

Same assay, conditions: Table 52; Yap1 mRNA, modified oligonucleotides targeting SEQ ID NO: 1 and 2
In the case of “1200844 (kA*kA*k[5mC]*dT*d[5mC]*mU*dT*dA*dT*dA*dT*dG*dG*kT*kT*kT; antisense) [Compound 1200844]”, the “YAP1 (% UT)” value is reported as 132 % UT. With “1200823 (k[5mC]*kT*kT*dT*dG*mG*dA*dA*dG*dA*dT*d[5mC]*dT*kG*kA*kA; antisense) [Compound 1200823]” the “YAP1 (% UT)” value was 46 % UT.

Same assay, conditions: Yap1 mRNA, percent of untreated control; modified oligonucleotides targeting SEQ ID NO: 1 and 2; Table 47
For “1198875 (kA*kA*dA*dG*dT*dG*dT*dA*dT*dG*dT*k[5mC]*eA*kG*eA*kA; antisense) [Compound 1198875]”, the “YAP1 (% UT)” value was 5 % UT. For “1197227 (antisense kT*kT*kA*dG*dA*d[5mC]*dT*dA*dA*dG*dT*dA*dA*kG*kG*kT) [Compound 1197227]”, the “YAP1 (% UT)” value was 64 % UT. For “1198859 (kA*k[5mC]*dT*d[5mC]*dT*dT*dA*dT*dA*dT*dG*kG*eT*kT*eT*kT; antisense) [Compound 1198859]”, the “YAP1 (% UT)” value was 33 % UT.
